Test results published in patent publication US20080103209A1, “Compounds And Methods For Treating Non-Inflammatory Pain Using Ppar Alpha Agonists” (The Regents of The University of California, priority 2004, published 2008).

What was measured:
mice = assay: Carrageenan-evoked paw edema (acute); type: in vivo, mouse; details: wild-type C57Bl6J; PEA 10 mg-kg^−1 i.p., WY-14643 20 mg-kg^−1 i.p.
Source text: In addition to rapid-onset analgesia, PEA also exerts prolonged anti-inflammatory effects [Benvenuti, et al., Boll Soc It Biol Sper 44, 809-813 (1968); Lambert, et al., Curr Med. Chem. 9, 663-74 (2002)], which are associated with the down-regulation of pro-inflammatory proteins such as nitric oxide synthase (NOS) [Costa, et al., Br J Pharmacol 137, 413-20. (2002)]. Two models of acute inflammation were used to examine whether such effects are mediated through PPARα. First, paw edema was induced in C57B16J wild-type and PPARα^−/− mice by local injection of the irritant, carrageenan [Cirino, et al., Eur J Pharmacol 166, 505-10 (1989)]. […] Next, ear edema was produced in CD1 mice by topical administration of the phorbol ester, 12-O-tetradecanoylphorbol-13-acetate (TPA) [Sheu, et al., J Invest Dermatol., 94-101. (2002)]. […] In a parallel set of experiments, the effects of PEA (20 μg) on TPA-induced edema were tested in C57B16J wild-type and PPARα^−/− mice. […] Together, these findings indicate that PEA reduces acute nociception and inflammation through activation of PPARα.
An inflammatory response was initiated by injecting 2% (w v^−1, 20 μl) λ-carrageenan in sterile saline into mice hind paws using a 27-gauge needle. Drugs were administered 30 minutes before carrageenan (i.p.). Paw edema was measured using a plethysmometer (Ugo Basile, Italy).

PKAα catalytic subunit = assay: Immunoblot of lumbar spinal cord extracts, PKAα catalytic subunit; type: in vivo, mouse; details: neuropathic mice, PEA 30 mg-kg^−1 s.c. once daily for two weeks; change not statistically significant
Procedure: (§1) Opiate analgesics have a high liability to produce tolerance, a progressive loss of pharmacological activity caused by repeated drug administrations (Waldhoer et al., Annu Rev Biochem, 73, 953 (2004)). To assess whether tolerance develops to the antihyperalgesic effects of PPARα agonists, PEA (30 mg-kg^−1, s.c.) was administered once a day for 14 consecutive days from the time of surgery, measuring mechanical and thermal hyperalgesia at day 7 and 14.
(§2) Immunoblot analysis. Lumbar spinal cord tissue was weighed, homogenized in Tris-HCl (20 mM, pH 7.5), 10 mM NaF, 150 mM NaCl, 1% Nonidet P-40, 1 mM PMSF, 1 mM Na3VO4, leupeptin and trypsin inhibitor (10 μg/ml). After 1 h, the tissue lysates were subjected to centrifugation ay 100,000×g for 15 min at 4° C. Protein concentrations were estimated using a Bio-Rad protein assay and bovine serum albumin as a standard. Equal amounts of protein (20 μg) were dissolved in Laemmli sample buffer, boiled for 5 min, subjected to sodium dodecyl sulphate-polyacrylamide gel electrophoresis (8% polyacrylamide) and transferred onto nitrocellulose membranes at 240 mA for 40 min at room temperature. […] The films were scanned and densitometrically analysed with a model GS-700 imaging densitometer.

human PPARα = target: T1, human PPARα (Homo sapiens, UniProt Q07869); assay: PPARα transactivation assay (HeLa cells, luciferase reporter); type: cell-based; details: HeLa cells, n=12; read-out: half-maximal effective concentration (EC50), PPARα activation
T1 construct: expressed in transfected cells
T1 sequence (Q07869 239-466 limits assumed): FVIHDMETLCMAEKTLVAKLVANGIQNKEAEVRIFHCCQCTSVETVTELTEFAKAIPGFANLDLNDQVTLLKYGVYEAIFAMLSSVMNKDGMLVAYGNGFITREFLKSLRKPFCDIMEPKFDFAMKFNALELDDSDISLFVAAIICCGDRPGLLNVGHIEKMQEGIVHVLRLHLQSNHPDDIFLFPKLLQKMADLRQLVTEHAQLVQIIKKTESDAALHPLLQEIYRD
Procedure: (§3) Transactivation assays were performed as previously described [Fu et al., Nature 425:90-93 (2003)].
PPAR-α transactivation. Plasmids were generated which contained the ligand-binding domain of human PPAR-α (nucleotides 499-1,407) fused to the DNA-binding domain of yeast GAL4 under control of the human cytomegalovirus promoter and to a neomycin resistance gene to provide stable selection with 0.2 mg-ml-1 G418 (Calbiochem). We cultured HeLa cells in Dulbecco's-modified Eagles's medium (DMEM) supplemented with fetal bovine serum (10%), transfected them with Fugene 6 ([…], Roche) containing the pFR-luc plasmid ([…], Stratagene) and, 18 h later, replaced the media with DMEM containing hygromycin (0.1 mg ml−1, Calbiochem). […] Cells were maintained in DMEM containing hygromycin and G418. For transactivation assays, we seeded cells in 6-well plates and incubated them for 7 h in DMEM containing hygromycin and G418, plus appropriate concentrations of test compounds. We used a dual-luciferase reporter assay system (Promega) and an MLX Microtiter® plate luminometer (Dynex) to determine luciferase activity in cell lysates.

[1] = tested on: PKA-IIα regulatory subunit phosphorylation on Ser^96; assay: Immunoblot of lumbar spinal cord extracts, phosphorylated PKA regulatory subunit; type: in vivo, mouse; details: neuropathic mice, PEA 30 mg-kg^−1 s.c. once daily for two weeks
Procedure: as §1, §2

PPARβ/δ = target: T2, PPARβ/δ (Homo sapiens, UniProt Q03181); assay: PPARβ/δ transactivation assay; type: cell-based; details: concentrations as high as 20 μM
T2 construct: expressed in transfected cells
T2 sequence (Q03181 1-441): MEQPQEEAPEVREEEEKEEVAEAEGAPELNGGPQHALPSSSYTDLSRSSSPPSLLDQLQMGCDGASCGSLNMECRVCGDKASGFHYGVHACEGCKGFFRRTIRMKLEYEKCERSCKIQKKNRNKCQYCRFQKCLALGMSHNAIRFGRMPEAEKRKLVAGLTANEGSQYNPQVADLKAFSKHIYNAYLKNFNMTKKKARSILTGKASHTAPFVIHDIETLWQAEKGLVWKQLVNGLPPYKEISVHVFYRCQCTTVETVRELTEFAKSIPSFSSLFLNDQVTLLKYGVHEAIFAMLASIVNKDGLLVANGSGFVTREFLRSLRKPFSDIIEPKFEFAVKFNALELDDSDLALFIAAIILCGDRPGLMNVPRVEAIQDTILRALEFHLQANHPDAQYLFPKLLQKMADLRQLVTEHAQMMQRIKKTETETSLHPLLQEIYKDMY
Procedure: as §3

EC50 (human PPARα): 3 µM
PPARβ/δ activation (PPARβ/δ): did not activate
Structure (SMILES): CCCCCCCCCCCCCCCC(=O)NCCO [PEA, palmitoylethanolamide]
carrageenan paw edema in wild-type mice (mice): decreased edema
spinal tissue levels of PKA α catalytic subunit (PKAα catalytic subunit): slightly decreased
phosphorylation of PKA-IIα regulatory subunit at Ser^96 [1]: reduced
